Source: publication PMC9784828, “Antimicrobial Activity of Peptide-Coupled Antisense Peptide Nucleic Acids in Streptococcus pneumoniae” (Microbiology Spectrum, 2022)

Tested on: Detroit 562 cells infected with S. pneumoniae TIGR4
Assay: Cell-based infection model, bacterial CFU
Set-up: species or system Streptococcus pneumoniae
Conditions: 20 μM CPP-PNA; MOI 5; 3 h at 37°C; n = 3
Method: Detroit 562 human pharyngeal epithelial cells were infected with S. pneumoniae TIGR4 at a multiplicity of infection (MOI) of 5. Cells were treated with 20 μM (RXR)4XB-anti-gyrA PNA or scrambled control PNA, respectively. As a positive control, 1 μg levofloxacin, corresponding to 3× MIC, was added. Following incubation for 3 h at 37°C, bacterial CFU counts were determined for CPP-antisense PNA-treated samples and compared to those in nontreated samples and in samples containing scrambled control PNAs (Fig. 4A). Treatment with (RXR)4XB-anti-gyrA caused a log CFU reduction of 1. Addition of levofloxacin led to a log CFU reduction of 2.
The human pharynx carcinoma epithelial cell line Detroit 562 (ATCC CCL138) was cultivated in Dulbecco’s modified Eagle medium (DMEM)/F12 (1:1) (Thermo Fisher Scientific, Schwerte, Germany) supplemented with 10% fetal bovine serum at 37°C and 5% CO2. Confluent Detroit 562 cells were infected with S. pneumoniae TIGR4 at an MOI of 5. Cultures were treated with 20 μM CPP-PNAs or 1 μg levofloxacin, respectively, and incubated for 3 h at 37°C, 5% CO2. After incubation, the supernatant was collected. Adherent cells were detached with Accutase solution (Merck KGaA, Darmstadt, Germany), collected by centrifugation for 10 min at 4,000 × g, and combined with the supernatant. Cells were pelleted by centrifugation, washed twice with PBS, and suspended in PBS. CFU/well was determined following serial dilution and plating on Todd Hewitt Broth, supplemented with Yeast, (THY) agar plates.

Substance: RXRRXRRXRRXRXB-eg-tgcattaata [(RXR)4XB-anti-gyrA PNA, (RXR)4XB peptide coupled to antisense PNA against gyrA]
- log CFU reduction in infected Detroit 562 cells: 1
